From the supplement of paper PMC10307832

How the values were obtained:
Assay in all cases: relative viability (nuclei count vs DMSO), 5 days (fraction); higher = more cells survive
[1] = compound: C1=CC=C2C(=C1)N=C(S2)C(C#N)C3=NC(=NC=C3)NCCC4=CN=CC=C4 + CS(=O)(=O)N1CCN(Cc2cc3nc(-c4cccc5[nH]ncc45)nc(N4CCOCC4)c3s2)CC1 [Pictilisib] (partner 1 µM)
Summary of the method: (§1)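 Relative viability was taken as the ratio of nuclei in treated wells to nuclei in vehicle wells. Lung cancer cell lines in 1536-well plates received compounds by pin tool one day after seeding, either one drug alone or a fixed anchor-drug dose plus five library-drug doses (not always all listed) in √10 steps. Nuclei were counted on 4× images after 5 days of treatment, and values are medians of duplicate plates.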

[2] = compound: C1=CC=C2C(=C1)N=C(S2)C(C#N)C3=NC(=NC=C3)NCCC4=CN=CC=C4 + CC(=O)c1c(C)c2cnc(Nc3ccc(N4CCNCC4)cn3)nc2n(C2CCCC2)c1=O [Palbociclib] (partner 0.5 µM)
Summary of the method: as §1

[3] = compound: COc1cc2/c(=N/c3ccc(Br)cc3F)nc[nH]c2cc1OCC1CCN(C)CC1 [Vandetanib] + CCNC(=O)c1noc(-c2cc(C(C)C)c(O)cc2O)c1-c1ccc(CN2CCOCC2)cc1 [Luminespib] (partner 0.01 µM)
Summary of the method: as §1

[4] = compound: C#Cc1cccc(Nc2ncnc3cc(OC)c(OCCCCCCC(=O)NO)cc23)c1 [CUDC-101] + Cc1cc(Nc2cc(N3CCN(C)CC3)nc(Sc3ccc(NC(=O)C4CC4)cc3)n2)n[nH]1 [Tozasertib] (partner 0.1 µM)
Summary of the method: as §1

Cell Line	relative viability ([1]; first compound 0.005 µM)	relative viability ([1]; first compound 0.01581 µM)	relative viability ([1]; first compound 0.05 µM)	relative viability ([1]; first compound 0.1581 µM)	relative viability ([1]; first compound 0.5 µM)	relative viability ([2]; first compound 0.005 µM)	relative viability ([2]; first compound 0.01581 µM)	relative viability ([2]; first compound 0.05 µM)	relative viability ([2]; first compound 0.1581 µM)	relative viability ([2]; first compound 0.5 µM)	relative viability ([3]; first compound 0.02 µM)	relative viability ([3]; first compound 0.06325 µM)	relative viability ([3]; first compound 0.2 µM)	relative viability ([3]; first compound 0.6325 µM)	relative viability ([3]; first compound 2 µM)	relative viability ([4]; first compound 0.01 µM)	relative viability ([4]; first compound 0.03162 µM)	relative viability ([4]; first compound 0.1 µM)	relative viability ([4]; first compound 0.3162 µM)	relative viability ([4]; first compound 1 µM)
COR-L 105	0.345	0.367	0.384	0.516	0.428	0.376	0.408	0.435	0.39	0.345	0.643	0.694	0.275	0.854	0.604	0.266	0.353	0.342	0.27	0.311
ChaGo-K-1	0.655	–	0.445	0.953	0.662	0.731	0.979	0.903	1.01	0.911	0.633	0.593	0.616	0.59	0.507	0.216	0.214	0.246	0.238	0.208
EKVX	0.497	0.422	0.45	0.479	0.457	0.294	0.367	0.41	0.531	0.285	0.878	0.86	0.956	0.827	0.65	0.392	0.32	0.394	0.366	0.295
EMC-BAC-2	0.492	0.512	0.484	0.572	0.501	0.461	0.533	0.487	0.555	0.486	1.15	1.11	0.216	1.27	1.07	0.312	0.208	0.251	0.209	0.199
EPLC-272H	0.271	0.277	0.288	0.352	0.267	0.358	0.32	0.317	0.284	0.304	0.265	–	0.272	0.756	0.276	0.216	0.284	0.306	0.231	0.121
H3255	0.493	0.449	0.47	0.553	0.535	0.367	0.309	0.303	0.327	0.305	0.982	0.795	0.829	0.728	0.501	0.649	0.591	–	0.549	0.135
HARA	0.324	0.349	0.368	0.611	0.298	0.298	0.235	0.229	0.257	0.365	0.814	0.561	0.074	0.9	0.512	0.116	0.108	0.101	0.0938	0.0704
HCC-15	0.733	0.74	0.72	0.855	0.685	0.701	0.771	0.734	0.74	0.627	0.343	0.293	0.0608	0.298	0.227	0.383	0.368	0.314	0.322	0.238
HCC-44	0.445	0.509	0.595	0.856	0.593	0.957	0.958	0.964	0.967	0.835	1.01	0.988	1.13	1.2	1.01	0.795	0.899	0.999	0.917	0.7
HCC-827	0.982	0.912	0.864	1.25	1.09	0.415	0.597	0.432	0.492	0.512	0.897	0.589	0.57	0.183	0.147	0.381	0.236	0.143	0.111	0.101
HOP-62	0.585	0.672	0.646	0.945	0.775	0.412	0.571	0.432	0.471	0.474	0.884	0.886	0.909	0.823	0.848	0.343	0.379	0.399	0.405	0.321
LC-2-ad	0.437	0.524	0.487	0.556	0.426	0.365	0.526	0.473	0.509	0.399	0.987	0.996	1.09	1	0.616	0.445	0.47	0.449	0.326	0.276
LCLC-97TM1	0.215	0.179	0.156	0.181	0.236	0.236	0.265	0.235	0.251	0.19	0.691	0.787	0.749	0.721	0.778	0.197	0.357	0.152	0.195	0.104
LCLC-103H	0.493	0.446	0.498	0.707	0.681	0.491	0.468	0.514	0.522	0.485	0.922	0.979	0.906	0.916	0.912	0.54	0.494	0.485	0.418	0.322
LK-2	–	–	0.531	0.597	0.685	0.619	0.914	0.555	0.801	0.715	0.189	0.163	0.235	0.156	0.214	0.149	0.222	0.185	0.195	0.139
LOU-NH91	0.51	0.515	0.477	0.533	0.489	0.545	0.552	0.477	0.563	0.543	0.33	0.306	0.294	0.369	0.32	0.703	0.548	0.472	0.411	0.305

Cell Line	relative viability ([1]; first compound 0.005 µM)	relative viability ([1]; first compound 0.01581 µM)	relative viability ([1]; first compound 0.05 µM)	relative viability ([1]; first compound 0.1581 µM)	relative viability ([1]; first compound 0.5 µM)	relative viability ([2]; first compound 0.005 µM)	relative viability ([2]; first compound 0.01581 µM)	relative viability ([2]; first compound 0.05 µM)	relative viability ([2]; first compound 0.1581 µM)	relative viability ([2]; first compound 0.5 µM)	relative viability ([3]; first compound 0.02 µM)	relative viability ([3]; first compound 0.06325 µM)	relative viability ([3]; first compound 0.2 µM)	relative viability ([3]; first compound 0.6325 µM)	relative viability ([3]; first compound 2 µM)	relative viability ([4]; first compound 0.01 µM)	relative viability ([4]; first compound 0.03162 µM)	relative viability ([4]; first compound 0.1 µM)	relative viability ([4]; first compound 0.3162 µM)	relative viability ([4]; first compound 1 µM)
LU99A	0.281	0.354	0.336	0.394	0.338	0.398	0.41	–	0.47	0.39	0.231	0.233	0.273	0.255	0.256	0.273	0.269	0.242	0.277	0.273
LXF-289	0.705	0.922	0.893	0.899	0.676	0.46	0.6	0.612	0.625	0.503	0.626	0.627	0.744	0.718	0.624	0.168	0.184	0.219	0.211	0.143
NCI-H23	–	0.464	0.455	0.508	0.511	–	0.456	0.528	0.577	0.411	0.259	0.224	0.232	0.221	0.221	0.34	0.315	0.288	0.384	0.574
NCI-H322M	0.482	0.477	0.492	0.552	0.486	0.427	0.501	0.484	0.476	0.488	0.805	0.8	0.889	0.834	0.504	0.477	0.476	0.45	0.413	0.339
NCI-H358	0.347	0.295	0.319	0.371	0.342	0.135	0.139	0.15	0.141	0.119	0.336	0.471	0.461	0.218	0.239	0.103	0.117	0.127	0.101	0.114
NCI-H441	–	0.458	0.549	0.55	0.494	0.231	0.184	0.232	0.241	0.187	0.376	0.392	0.208	0.409	0.45	0.536	0.683	0.645	0.599	0.435
NCI-H460	0.355	0.306	0.358	0.506	0.353	–	0.146	0.118	0.147	0.143	0.0345	0.0344	0.0312	0.0333	0.0336	0.379	0.393	0.396	0.629	0.373
NCI-H520	0.178	0.328	0.307	0.362	0.256	0.193	0.266	0.231	0.259	0.213	0.206	0.218	0.222	0.253	0.209	0.443	0.434	0.449	0.401	0.304
NCI-H647	–	0.301	0.391	0.556	0.452	0.376	0.407	0.372	0.378	0.442	0.334	0.337	0.0629	0.283	0.285	0.235	0.338	0.266	0.223	0.211
NCI-H650	0.728	0.845	0.804	0.934	0.901	0.321	0.336	0.301	0.321	0.323	0.843	0.667	–	0.992	0.766	0.844	0.733	0.639	0.599	0.369
NCI-H661	0.382	0.358	0.44	0.403	0.211	0.428	0.433	0.415	0.416	0.411	0.912	0.914	0.869	0.934	0.978	0.356	0.331	0.362	0.342	0.248
NCI-H727	0.553	0.304	0.299	0.473	0.37	0.508	0.594	0.64	0.658	0.673	0.591	0.349	0.247	0.252	0.316	0.56	0.556	0.56	0.673	0.407
NCI-H838	0.463	0.413	0.439	0.612	0.391	0.223	0.211	0.216	0.214	0.213	0.354	0.353	0.145	0.333	0.278	0.265	0.266	0.329	0.265	0.264
NCI-H1355	0.535	0.388	0.365	0.503	0.439	0.662	0.431	0.394	0.412	0.364	0.618	0.731	0.838	0.685	0.698	0.518	0.539	0.5	0.544	0.384
NCI-H1395	0.602	–	0.651	0.781	0.81	0.616	–	0.524	0.726	0.601	0.715	0.539	0.729	0.6	0.879	0.809	0.717	0.747	0.744	0.627
NCI-H1437	0.474	0.39	0.398	0.539	0.361	0.372	0.329	0.327	0.312	0.304	1.12	1.09	0.255	1.21	1.06	0.41	0.332	0.41	0.429	0.361
